Assay results: PMC7026882, “Macrofilaricidal Benzimidazole–Benzoxaborole Hybrids as an Approach to the Treatment of River Blindness: Part 2. Ketone Linked Analogs” (ACS Infectious Diseases, 2019)
Read-outs that look alike come from different tables or passages of the source.

How the values were obtained:
[1] = test system: O. volvulus; experiment: O. volvulus molting assay; assay type: cell-based; details: Onchocerca volvulus; for IC50: molting assay
Source text: As summarized in Table 1, we were encouraged to find that the initial ketone analogs prepared, namely, 15 (6-linked) and 20 (5-linked), were quite active in an O. volvulus molting assay we used as a primary indicator of antiparasitic activity[30],[31] and were only weakly active in a G2/M arrest,[32] indicative of the interaction with mammalian tubulin. As described above, our hypothesis was to reduce Pgp efflux liability through elimination of the hydrogen-bond donor associated with the N–H of the amide linker, as this has been shown in the literature to be a contributor to recognition by Pgp.[33],[34] […] We were disappointed to find that the 5-linked analog 22 was poorly selective and the 6-linked analog 23 was only weakly active. […]
(§1) in comparison to the number of control larvae that had successfully molted. IC50 values were calculated using GraphPad Prism v6.0 (http://www.graphpad.com). See Bullman et al., PLoS
(§2) Negl. Trop. Dis., 2015, 9, e3534 for further details.
(§3) Adult Brugia malayi in vivo model procedure.
(§4) Gerbils (Meriones unguiculatus) were infected by transplantation of 10 male and 10 female adult Brugia malayi into the peritoneal cavity. Gerbils were acclimated for 7 days prior to treatment. Animals were dosed based on their body weight prior to each dosing. Animals were administered their doses at the same time each day and receive standard rodent laboratory diet and water ad libitum. Gerbils were humanely euthanized at the conclusion of each study.
(§5) Peritoneal counts of male and female adult B. malayi and visual condition of the peritoneum […]
(§6) L3 Brugia pahangi in vivo model procedure.
(§7) Male gerbils (Meriones unguiculatus) approximately 6 weeks of age (50-60 g) were purchased from Charles Rivers (USA, Kingston K62 Gerbils) and infected by intraperitoneal injection with 200 Brugia pahangi third-stage larvae (L3) per animal (Filariatech, Inc., Athens, GA). Gerbils were housed with no more than 5 animals per cage and maintained 9 months prior to treatment. All gerbils were dosed in accordance with their body weight determined prior to each dosing. Animals were administered their doses at the same time each day and are allowed to feed and drink ad libitum. Gerbils were euthanized following approved institutional protocols. Euthanized animals were weighed and examined for external and visceral pathologies. The adult Brugia worms were recovered by opening the body cavity and washing the peritoneal cavity with 100 mL of phosphate buffered saline. Male and female worms were counted using a dissecting microscope.
(§8) Litomosoides sigmodontis in vivo model procedure. 2
(§9) All animal experiments with L. sigmodontis were conducted at the Institute for Medical Microbiology, Immunology and Parasitology (IMMIP), University Hospital of Bonn, in accordance to the European Union animal welfare guidelines. All protocols were approved by the local authorities (Landesamt für Natur, Umwelt und Verbraucherschutz, Cologne, Germany (AZ 84- […]
(§10) Janvier (Saint-Berthevin, France) and were housed at the animal facility of the IMMIP in individually ventilated cages on a 12h light/dark cycle with food and water ad libidum. Mice were infected at 6-8 weeks of age via exposure to the natural mite vector Ornithonyssus bacoti

[2] = Metabolic stability (Clint) in gerbil microsomes; assay type: in vitro ADME
Source text: (§11) As summarized in Table 1, we were encouraged to find that the initial ketone analogs prepared, namely, 15 (6-linked) and 20 (5-linked), were quite active in an O. volvulus molting assay we used as a primary indicator of antiparasitic activity[30],[31] and were only weakly active in a G2/M arrest,[32] indicative of the interaction with mammalian tubulin. As described above, our hypothesis was to reduce Pgp efflux liability through elimination of the hydrogen-bond donor associated with the N–H of the amide linker, as this has been shown in the literature to be a contributor to recognition by Pgp.[33],[34] […] We were disappointed to find that the 5-linked analog 22 was poorly selective and the 6-linked analog 23 was only weakly active.

[3] = test system: P-gp (MDR1); experiment: MDCK-MDR1 cell monolayer permeability assay; assay type: in vitro ADME; details: dog
Source text: as §11

[4] = Metabolic stability (Clint) in human microsomes; assay type: in vitro ADME
Source text: as §11

[5] = test system: mammalian tubulin (G2/M arrest); experiment: G2/M arrest assay, indicative of interaction with mammalian tubulin; assay type: cell-based
Source text: as §11

[6] = Pharmacokinetics in Mongolian gerbils; assay type: in vivo; details: blood, Mongolian gerbils; for AUC(0-t): read-out: AUC0–24; for Cmax: read-out: Cmax; for bioavailability: po, read-out: bioavailability (%F)
Source text: In addition, the concentrations achieved at these doses were well in excess of the O. volvulus IC50, a requirement for in vivo activity that we had hypothesized on the basis of earlier work in the amide-linked series.

[7] = test system: P-glycoprotein transporter (Pgp); parameters: method as in PMID 30650084; details: limits oral bioavailability; cited from earlier work
[8] = test system: LF (lymphatic filariasis); parameters: method as in PMID 30650084; details: by route of administration; cited from earlier work
[9] = test system: Brugia pahangi; experiment: In vivo efficacy in the L3 Brugia pahangi gerbil model
Protocol: For our in vivo model, gerbils were infected by injecting B. pahangi third-stage larvae (L3) that were subsequently allowed to develop to adult worms over several months. Once stable infections had been established, 21 was administered as a suspension via once-daily oral gavage at a dose of 100 mg/kg for 7, 14, or 28 days. All animals were maintained until day 63 after the start of dosing, at which time adult worms were recovered from the peritoneal cavity and microfilariae were quantified in blood samples. Flubendazole (5 mg/kg, SC × 5 days) was included as a positive control in this study. […]
as §1, §2, §3, §4, §5, §6, §7, §8, §9, §10

[10] = SC, 10 mg/kg, 5 days, QD, positive control

Row | Structure (SMILES) | IC50 [1] | microsomal CLint [2] | Papp A→B [3] | microsomal CLint [4] | IC50 [5] | also measured
1 | COC(=O)Nc1nc2cc(C(=O)c3cccc4c3B(O)O[C@H]4C)ccc2[nH]1 (single isomer, unassigned) [compound 30] | 110 nM | < 4 µL/min/mg | 34.3 ×10⁻⁶ cm/s | < 4 µL/min/mg | 12200 nM | AUC(0-t) ([6]; 2 mg/kg, dose 2, IV): 14600 ng·h/mL; Cmax ([6]; 2 mg/kg, dose 2, IV): 7580 ng/mL; AUC(0-t) ([6]; 10 mg/kg, dose 10, PO): 141000 ng·h/mL; Cmax ([6]; 10 mg/kg, dose 10, PO): 14000 ng/mL; bioavailability ([6]; 10 mg/kg, dose 10, PO): ~100%
2 | COC(=O)Nc1nc2ccc(C(=O)c3ccc(F)c4c3B(O)OC4)cc2[nH]1 [compound 26] | 20 nM | 11.6 µL/min/mg | 21.7 ×10⁻⁶ cm/s | 11.1 µL/min/mg | 30300 nM | AUC(0-t) ([6]; 2 mg/kg, dose 2, IV): 18600 ng·h/mL; Cmax ([6]; 2 mg/kg, dose 2, IV): 10900 ng/mL; AUC(0-t) ([6]; 10 mg/kg, dose 10, PO): 23500 ng·h/mL; Cmax ([6]; 10 mg/kg, dose 10, PO): 1690 ng/mL; bioavailability ([6]; 10 mg/kg, dose 10, PO): 24%
3 | COC(=O)Nc1nc2cc(C(=O)c3ccc4c(c3)C(C)(C)OB4O)ccc2[nH]1 [compound 22] | 10 nM | – | 26.2 ×10⁻⁶ cm/s | – | 280 nM | –
4 | COC(=O)Nc1nc2cc(C(=O)CCc3ccc4c(c3)B(O)OC4(C)C)ccc2[nH]1 [compound 32] | 290 nM | 26.7 µL/min/mg | 16 ×10⁻⁶ cm/s | 7.63 µL/min/mg | 460 nM | –
5 | COC(=O)Nc1nc2cc(C(=O)c3ccc4c(c3)B(O)O[C@@H]4C)ccc2[nH]1 (single isomer, unassigned) [compound 24] | > 1000 nM | – | – | – | > 100000 nM | inhibition at 1 µM [1]: 2%
6 | COC(=O)Nc1nc2ccc(C(=O)c3c(F)ccc4c3B(O)OC4)cc2[nH]1 [compound 28] | 1310 nM | – | – | – | > 100000 nM | –
7 | COC(=O)Nc1nc2ccc(C(=O)c3ccc(Cl)c4c3B(O)OC4)cc2[nH]1 [compound 31] | 30 nM | < 4 µL/min/mg | 28 ×10⁻⁶ cm/s | < 4 µL/min/mg | 11600 nM | –
8 | COC(=O)Nc1nc2cc(C(=O)c3ccc4c(c3)B(O)O[C@H]4C)ccc2[nH]1 (single isomer, unassigned) [compound 25] | 40 nM | < 4 µL/min/mg | 15.5 ×10⁻⁶ cm/s | < 4 µL/min/mg | > 100000 nM | –
9 | COC(=O)Nc1nc2cc(C(=O)c3cccc4c3COB4O)ccc2[nH]1 [compound 19] | 1590 nM | – | 28.3 ×10⁻⁶ cm/s | 5.56 µL/min/mg | > 100000 nM | –
10 | COC(=O)Nc1nc2cc(C(=O)c3ccc4c(c3)B(O)OC4)ccc2[nH]1 [compound 15] | 118 nM | 8.25 µL/min/mg | 6 ×10⁻⁶ cm/s | – | 12300 nM | AUC(0-t) ([6]; 2 mg/kg, dose 2, IV): 880 ng·h/mL; Cmax ([6]; 2 mg/kg, dose 2, IV): 2260 ng/mL; AUC(0-t) ([6]; 10 mg/kg, dose 10, PO): 790 ng·h/mL; Cmax ([6]; 10 mg/kg, dose 10, PO): 270 ng/mL; bioavailability ([6]; 10 mg/kg, dose 10, PO): 18%
11 | COC(=O)Nc1nc2ccc(C(=O)c3ccc4c(c3)B(O)OC4(C)C)cc2[nH]1 [compound 23] | > 1000 nM | – | 20.7 ×10⁻⁶ cm/s | – | > 100000 nM | inhibition at 1 µM [1]: 0%
12 | COC(=O)Nc1nc2cc(C(=O)NCc3ccc4c(c3)B(O)OC4(C)C)ccc2[nH]1 [compound 4] | – | – | – | – | – | efflux via P-glycoprotein transporter (Pgp) [7]: subject to efflux; activity in in vivo models of LF [8]: only active in in vivo models of LF following subcutaneous administration
13 | COC(=O)Nc1nc2ccc(C(=O)c3cc(F)cc4c3B(O)OC4)cc2[nH]1 [compound 27] | 270 nM | < 4 µL/min/mg | 32 ×10⁻⁶ cm/s | < 4 µL/min/mg | 22000 nM | –
14 | COC(=O)Nc1nc2cc(C(=O)c3cccc4c3B(O)O[C@@H]4C)ccc2[nH]1 (single isomer, unassigned) [compound 29] | 100 nM | < 4 µL/min/mg | 57.2 ×10⁻⁶ cm/s | < 4 µL/min/mg | 5600 nM | –
15 | COC(=O)Nc1nc2cc(C(=O)CCCc3ccc4c(c3)B(O)OC4(C)C)ccc2[nH]1 [compound 33] | – | – | – | – | 20 nM | –
16 | COC(=O)Nc1nc2cc(C(=O)c3ccc(F)cc3)ccc2[nH]1 [compound 3, flubendazole, reference compound] | 4 nM | < 4 µL/min/mg | – | – | 670 nM | Papp A→B ([3]; A-B, read-out: MDCK-MDR1 Papp (A-B)): 15.6 ×10⁻⁶ cm/s; Number of Worms Recovered, Avg Female Worms [9, 10]: 0.0; Number of Worms Recovered, Avg Male Worms [9, 10]: 0.0; worms recovered from positive control group ([9]; given SC): no worms recovered
17 | COC(=O)Nc1nc2cc(C(=O)c3ccc4c(c3)COB4O)ccc2[nH]1 [compound 20] | 112 nM | 11.7 µL/min/mg | 11.7 ×10⁻⁶ cm/s | – | 9800 nM | AUC(0-t) ([6]; 2 mg/kg, dose 2, IV): 1160 ng·h/mL; Cmax ([6]; 2 mg/kg, dose 2, IV): 2000 ng/mL; AUC(0-t) ([6]; 10 mg/kg, dose 10, PO): 990 ng·h/mL; Cmax ([6]; 10 mg/kg, dose 10, PO): 480 ng/mL; bioavailability ([6]; 10 mg/kg, dose 10, PO): 17%
